The results in this text go back to patent EP0703776B1, “UTILIZATION OF A PEPTIDE HAVING A LYSIN GROUP AND AN ALANINE GROUP IN THE TERMINAL POSITION FOR THE PREPARATION OF A DEPIGMENTING COMPOSITION, AND DEPIGMENTING COMPOSITION THUS OBTAINED” (PARFUMS CHRISTIAN DIOR, priority 1993, dated 1997).

No end group written: not given here.

This test concerns tyrosinase de champignon. In words: Tyrosinase inhibition (kinetics of dopaquinone formation at 480 nm, substrates L-tyrosine + L-dopa). It counts as biochemical.

As to “KCTCCA (cysteine pairing not given here) [hexapeptide, commercialement disponible chez Sigma, France]”, the “pourcentage d'inhibition de la tyrosinase” value worked out at 98% (peptide 5.10^-3 M, series T0 (substrates added at time T0)); 98% (peptide 5.10^-4 M, series T 15 min (substrates added 15 min after mixing peptide and tyrosinase)). The “effet d'inhibition de la tyrosinase” value (peptide 5.10^-6 M, result in words) is reported as “déjà très significative”.
